Measured values from ChEMBL document CHEMBL3044945, “Synthesis of 1,3,5-trisubstituted pyrazoline nucleus containing compounds and screening for antimicrobial activity” (2012).

Key:
Type in all cases: functional
[1] = test system: Aspergillus niger; test: Antifungal activity against Aspergillus niger MTCC 2546 at 10 ug/ml after 48 hr by cup-plate method; details: MTCC 2546, 48 h, read-out: DIZ
[2] = test system: Penicillium chrysogenum; test: Antifungal activity against Penicillium chrysogenum MTCC 161 at 10 ug/ml after 48 hr by cup-plate method; details: MTCC 161, 48 h, read-out: DIZ
[3] = test system: Escherichia coli; test: Antibacterial activity against Escherichia coli MTCC 1573 at 10 ug/ml after 48 hr by cup-plate method; details: MTCC 1573, 48 h, read-out: DIZ
[4] = test system: Pseudomonas aeruginosa; test: Antibacterial activity against Pseudomonas aeruginosa MTCC 424 at 10 ug/ml after 48 hr by cup-plate method; details: MTCC 424, 48 h, read-out: DIZ
[5] = test system: Staphylococcus aureus; test: Antibacterial activity against Staphylococcus aureus MTCC 1430 at 10 ug/ml after 48 hr by cup-plate method; details: MTCC 1430, 48 h, read-out: DIZ
[6] = test system: Micrococcus luteus; test: Antibacterial activity against Micrococcus luteus MTCC 1538 at 10 ug/ml after 48 hr by cup-plate method; details: MTCC 1538, 48 h, read-out: DIZ
[7] = test system: Pseudomonas fluorescens; test: Antibacterial activity against Pseudomonas fluorescens MTCC 2421 at 10 ug/ml after 48 hr by cup-plate method; details: MTCC 2421, 48 h, read-out: DIZ
[8] = test system: Bacillus subtilis; test: Antibacterial activity against Bacillus subtilis MTCC 441 at 10 ug/ml after 48 hr by cup-plate method; details: MTCC 441, 48 h, read-out: DIZ
[9] = test system: Bacillus pumilus; test: Antibacterial activity against Bacillus pumilus MTCC 1456 at 10 ug/ml after 48 hr by cup-plate method; details: MTCC 1456, 48 h, read-out: DIZ

| SMILES | zone of inhibition at 10 µg/mL [1] | zone of inhibition at 10 µg/mL [2] | zone of inhibition at 10 µg/mL [3] | zone of inhibition at 10 µg/mL [4] | zone of inhibition at 10 µg/mL [5] | zone of inhibition at 10 µg/mL [6] | zone of inhibition at 10 µg/mL [7] | zone of inhibition at 10 µg/mL [8] | zone of inhibition at 10 µg/mL [9] |
| --- | --- | --- | --- | --- | --- | --- | --- | --- | --- |
| OC(Cn1cncn1)(Cn1cncn1)c1ccc(F)cc1F [FLUCONAZOLE] | 24 mm | 25 mm |  |  |  |  |  |  |  |
| CCn1cc(C(=O)O)c(=O)c2cc(F)c(N3CCNCC3)cc21 [NORFLOXACIN] |  |  | 27 mm | 24 mm | 28 mm | 32 mm | 27 mm | 25 mm | 27 mm |
